Measurements from patent US5614625A, “Hydroxamic acid derivatives with tricyclic substitution” (Hoffmann-La Roche Inc., priority 1994, dated 1997).

Target: T1, collagenase obtained from a culture of human synovial fibroblasts (Homo sapiens, UniProt P03956)
T1 construct: endogenous in cells; host or cells: human synovial fibroblast culture (conditioned medium)
T1 sequence (P03956 100-469): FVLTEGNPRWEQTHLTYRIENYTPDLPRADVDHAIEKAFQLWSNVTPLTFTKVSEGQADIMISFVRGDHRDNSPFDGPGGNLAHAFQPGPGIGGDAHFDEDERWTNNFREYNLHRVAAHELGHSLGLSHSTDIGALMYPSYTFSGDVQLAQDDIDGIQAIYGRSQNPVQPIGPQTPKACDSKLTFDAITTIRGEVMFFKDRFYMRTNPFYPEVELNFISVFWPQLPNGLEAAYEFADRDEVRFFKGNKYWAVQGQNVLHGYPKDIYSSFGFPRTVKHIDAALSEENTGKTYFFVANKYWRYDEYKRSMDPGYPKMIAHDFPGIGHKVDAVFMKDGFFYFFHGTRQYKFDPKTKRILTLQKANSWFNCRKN
Experiment: in vitro collagenase inhibiting activity, microtitre plate assay with 14C-acetylated collagen type I from rat tail tendons as substrate
Assay type: biochemical
Conditions: trypsin-activated pro-collagenase; 14C-acetylated collagen type I substrate; concentration reducing substrate cleavage and solubilization to 50%

Row | SMILES | IC50 [nM]
1 | CN1C(=O)N(CC(C(=O)NO)[C@@H](CC2CCCC2)C(=O)N2CCOCC2)C(=O)C1(C)C (single isomer, unassigned) [Example 16, 4-[3-cyclopentyl-2(R)-[1(R or S)-(hydroxycarbamoyl)-2-(3,4,4-trimethyl-2,5-dioxo-1-imidazolidinyl)ethyl]propionyl]morpholine] | 4.1
2 | CNC(=O)[C@H]1N(C(=O)[C@H](CC2CCCC2)C(CN2C(=O)N(C)C(C)(C)C2=O)C(=O)NO)CSC1(C)C (single isomer, unassigned) [Example 17, 3-[3-cyclopentyl-2(R)-[1(R or S)-(hydroxycarbamoyl)-2-(3,4,4-trimethyl-2,5-dioxo-1imidazolidinyl)ethyl]propionyl]-N,5,5-trimethyl-4(R)-thiazolidinecarboxamide] | 2.35
3 | CN1C(=O)N(CC(C(=O)NO)[C@@H](CC2CCC2)C(=O)N2CCCCCCC2)C(=O)C1(C)C (single isomer, unassigned) [Example 23, 1-[3-cyclobutyl-2(R)-[1(R or S)-(hydroxycarbamoyl)-2-(3,4,4-trimethyl-2,5-dioxo-1-imidazolidinyl)ethyl]propionyl]octahydroazocine] | 34

Results, then the molecule that gave them:

Row | IC50 [nM] | SMILES
4 | 18 | CN1C(=O)N(CC(C(=O)NO)[C@@H](CC2CC2)C(=O)N2CCC(O)CC2)C(=O)C1(C)C (single isomer, unassigned) [Example 2, 1-[3-cyclopropyl-2-(R)-[1(R or S)-(hydroxycarbamoyl)-2-(3,4,4-trimethyl-2,5-dioxo-1-imidazolidinyl)ethyl]propionyl]-4-piperidinol]
5 | 2.5 | CN1C(=O)N(CC(C(=O)NO)[C@@H](CC2CCC2)C(=O)N2CCC(O)CC2)C(=O)C1(C)C (single isomer, unassigned) [Example 5, 1-[3-cyclobutyl-2(R)-[1(R or S)-(hydroxycarbamoyl)-2-(3,4,4-trimethyl-2,5-dioxo-1-imidazolidinyl)ethyl]propionyl]-4-piperidinol]
6 | 7 | CN1C(=O)N(CC(C(=O)NO)[C@@H](CC2CCC2)C(=O)N2CCCCC2)C(=O)C1(C)C (single isomer, unassigned) [Example 4, 1-[3-cyclobutyl-2(R)-[1(R or S)-(hydroxycarbamoyl)-2-(3,4,4-trimethyl-2,5-dioxo-1-imidazolidinyl)ethyl]propionyl]piperidine]
7 | 6.5 | CN1C(=O)N(CC(C(=O)NO)[C@@H](CC2CCCC2)C(=O)N2CCC(O)CC2)C(=O)C1(C)C (single isomer, unassigned) [Example 7, 1-[3-cyclopentyl-2[(R)-[1(R or S)-(hydroxycarbamoyl)-2-(3,4,4-trimethyl-2,5-dioxo-1imidazolidinyl)ethyl]propionyl]-4-piperidinol]
